The target of the first test is T1, human histamine H4 receptor (Homo sapiens, UniProt Q9H3N8).
T1 construct: expressed in transfected cells; host or cells: SK-N-MC cells or COS7 cells, transiently transfected; cell membranes used
T1 sequence (Q9H3N8 whole entry): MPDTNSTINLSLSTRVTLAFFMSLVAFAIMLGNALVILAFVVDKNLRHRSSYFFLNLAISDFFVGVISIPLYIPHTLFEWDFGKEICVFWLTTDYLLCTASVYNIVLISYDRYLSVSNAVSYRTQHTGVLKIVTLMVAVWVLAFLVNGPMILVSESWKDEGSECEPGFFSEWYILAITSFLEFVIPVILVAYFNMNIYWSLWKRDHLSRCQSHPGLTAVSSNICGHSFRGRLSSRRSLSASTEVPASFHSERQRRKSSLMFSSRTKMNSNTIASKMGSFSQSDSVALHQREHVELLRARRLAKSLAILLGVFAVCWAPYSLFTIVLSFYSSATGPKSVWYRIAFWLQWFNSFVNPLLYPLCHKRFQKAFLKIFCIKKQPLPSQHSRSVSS
The test is described as follows: Binding assay on recombinant human histamine H4 receptor (3H-histamine displacement).
Settings: not given
Here is the method:
SK—N-MC cells or COS7 cells were transiently transfected with pH4R and grown in 150 cm^2 tissue culture dishes. Cells were washed with saline solution, scraped with a cell scraper and collected by centrifugation (1000 rpm, 5 min). Cell membranes were prepared by homogenization of the cell pellet in 20 mM Tris-HCl with a polytron tissue homogenizer for 10 s at high speed. Homogenate was centrifuged at 1000 rpm for 5 min at 4° C. The supernatant was then collected and centrifuged at 20,000×g for 25 min at 4° C. The final pellet was resuspended in 50 mM Tris-HCl. Cell membranes were incubated with ^3H-histamine (5-70 nM) in the presence or absence of excess histamine (10,000 nM). Incubation occurred at room temperature for 45 min. Membranes were harvested by rapid filtration over Whatman GF/C filters and washed 4 times with ice-cold 50 mM Tris HCl. Filters were then dried, mixed with scintillant and counted for radioactivity. SK—N-MC or COS7 cells expressing human histamine H4 receptor were used to measure the affinity of binding of other compounds and their ability to displace ^3H-ligand binding by incubating the above-described reaction in the presence of various concentrations of inhibitor or compound to be tested.
`CN1CCC(CCCOc2ccc(-c3nc4ccccc4[nH]3)cc2)CC1` [Example 65, 2-{4-[3-(1-Methyl-piperidin-4-yl)-propoxy]-phenyl}-1H-benzoimidazole]: the Ki (as a rule, a dissociation constant, usually derived from enzyme kinetics or from competition with a known ligand) came out at 157 nM.

Staying with this test, now noted: competition binding with 3H-histamine; membranes of SK-N-MC or COS7 cells expressing human H4 receptor; Cheng-Prusoff, KD 5 nM, ligand 5 nM.
In the case of `CN1CCN(CCCOc2ccc(-c3nc4cc(Cl)ccc4[nH]3)c(Cl)c2)CC1` [Example 36, 5-Chloro-2-{2-chloro-4-[3-(4-methyl-piperazin-1-yl)-propoxy]-phenyl}-1H-benzoimidazole], the Ki came out at 35 nM.
Still for that read-out and setting: the result for `CN1CCN(CCCOc2ccc(-c3nc4cc(Cl)c(F)cc4[nH]3)c(Cl)c2)CC1` [Example 37, 5-Chloro-2-{2-chloro-4-[3-(4-methyl-piperazin-1-yl)-propoxy]-phenyl}-6-fluoro-1H-benzoimidazole] reads 36 nM; that for `Cc1cc(-c2nc3cc(Cl)ccc3[nH]2)ccc1OCCCN1CCN(C)CC1` [Example 38, 5-Chloro-2-{3-methyl-4-[3-(4-methyl-piperazin-1-yl)-propoxy]-phenyl}-1H-benzoimidazole], 65 nM.
On the same count and under the same terms, the result for `Cc1ccc2[nH]c(-c3ccc(OCCCN4CCN(C)CC4)c(Cl)c3)nc2c1` [Example 39, 2-{3-Chloro-4-[3-(4-methyl-piperazin-1-yl)-propoxy]-phenyl}-5-methyl-1H-benzoimidazole] reads 66 nM.
The same measure, in the same setting: as for `CN1CCN(CCCOc2ccc(-c3nc4cc(Cl)c(Cl)cc4[nH]3)cc2Cl)CC1` [Example 40, 5,6-Dichloro-2-{3-chloro-4-[3-(4-methyl-piperazin-1-yl)-propoxy]-phenyl}-1H-benzoimidazole], the figure is 74 nM; as for `Cc1cc2[nH]c(-c3ccc(OCCCN4CCN(C)CC4)c(C)c3)nc2cc1Cl` [Example 41, 5-Chloro-6-methyl-2-{3-methyl-4-[3-(4-methyl-piperazin-1-yl)-propoxy]-phenyl}-1H-benzoimidazole], 78 nM; as for `Cc1ccc2[nH]c(-c3ccc(OCCCN4CCN(C)CC4)cc3Cl)nc2c1` [Example 42, 2-{2-Chloro-4-[3-(4-methyl-piperazin-1-yl)-propoxy]-phenyl}-5-methyl-1H-benzoimidazole], 79 nM.
`CN1CCN(CCCOc2ccc(-c3nc4cc(Cl)ccc4[nH]3)cc2Cl)CC1` [Example 43, 5-Chloro-2-{3-chloro-4-[3-(4-methyl-piperazin-1-yl)-propoxy]-phenyl}-1H-benzoimidazole]: the Ki is 82 nM.
`CN1CCN(CCCOc2ccc(-c3nc4cc(C(F)(F)F)ccc4[nH]3)cc2Cl)CC1` [Example 44, 2-{3-Chloro-4-[3-(4-methyl-piperazin-1-yl)-propoxy]-phenyl}-5-trifluoromethyl-1H-benzoimidazole]: the Ki turned out to be 87 nM.
Same read-out and setting: the result for `Cc1cc(-c2nc3cc(Cl)c(F)cc3[nH]2)ccc1OCCCN1CCN(C)CC1` [Example 45, 5-Chloro-6-fluoro-2-{3-methyl-4-[3-(4-methyl-piperazin-1-yl)-propoxy]-phenyl}-1H-benzoimidazole] reads 110 nM; that for `Cc1ccc2[nH]c(-c3ccc(OCCCN4CCN(C)CC4)c(C)c3)nc2c1` [Example 46, 5-Methyl-2-{3-methyl-4-[3-(4-methyl-piperazin-1-yl)-propoxy]-phenyl}-1H-benzoimidazole], 113 nM.
With `CN1CCN(CCCOc2ccc(-c3nc4ccccc4[nH]3)cc2Cl)CC1` [Example 47, 2-{3-Chloro-4-[3-(4-methyl-piperazin-1-yl)-propoxy]-phenyl}-1H-benzoimidazole], the Ki came to 129 nM.
Same read-out and setting: as for `Cc1cc(-c2nc3ccccc3[nH]2)ccc1OCCCN1CCN(C)CC1` [Example 48, 2-{3-Methyl-4-[3-(4-methyl-piperazin-1-yl)-propoxy]-phenyl}-1H-benzoimidazole], the figure is 154 nM.
Same read-out and setting: the result for `CN1CCN(CCCOc2ccc(-c3nc4ccccc4[nH]3)c(Cl)c2)CC1` [Example 49, 2-{2-Chloro-4-[3-(4-methyl-piperazin-1-yl)-propoxy]-phenyl}-1H-benzoimidazole] reads 173 nM; that for `COc1cc(-c2nc3cc(Cl)c(F)cc3[nH]2)ccc1OCCCN1CCN(C)CC1` [Example 50, 5-Chloro-6-fluoro-2-{3-methoxy-4-[3-(4-methyl-piperazin-1-yl)-propoxy]-phenyl}-1H-benzoimidazole], 187 nM.
Take `COc1ccc2[nH]c(-c3ccc(OCCCN4CCN(C)CC4)c(Cl)c3)nc2c1` [Example 51, 2-{3-Chloro-4-[3-(4-methyl-piperazin-1-yl)-propoxy]-phenyl}-5-methoxy-1H-benzoimidazole]: the Ki came to 278 nM.
The same measure, in the same setting: the result for `CN1CCN(CCCOc2c(Br)cc(-c3nc4cc(C(C)(C)C)ccc4[nH]3)cc2Br)CC1` [Example 52, 5-tert-Butyl-2-{3,5-dibromo-4-[3-(4-methyl-piperazin-1-yl)-propoxy]-phenyl}-1H-benzoimidazole] reads 641 nM; that for `COc1cc(OCCCN2CCN(C)CC2)ccc1-c1nc2cc(C(F)(F)F)ccc2[nH]1` [Example 53, 2-{2-Methoxy-4-[3-(4-methyl-piperazin-1-yl)-propoxy]-phenyl}-5-trifluoromethyl-1H-benzoimidazole], 872 nM; that for `CN1CCN(CCCOc2ccc(-c3nc4cc(C(F)(F)F)ccc4[nH]3)c(Cl)c2)CC1` [Example 54, 2-{2-Chloro-4-[3-(4-methyl-piperazin-1-yl)-propoxy]-phenyl}-5-trifluoromethyl-1H-benzoimidazole], 30 nM.
`CN1CCN(CCCOc2cccc(-c3nc4ccccc4[nH]3)c2)CC1` [Example 55, 2-{3-[3-(4-Methyl-piperazin-1-yl)-propoxy]-phenyl}-1H-benzoimidazole]: the Ki was found to be 203 nM.
The same measure, in the same setting: as for `CN1CCN(CCCCOc2cccc(-c3nc4cc(C(=O)c5ccccc5)ccc4[nH]3)c2)CC1` [Example 56, (2-{3-[4-(4-Methyl-piperazin-1-yl)-butoxy]-phenyl}-1H-benzoimidazol-5-yl)-phenyl-methanone], the figure is 324 nM; as for `Cc1cc(Cl)cc2[nH]c(-c3ccc(OCCCC4CCN(C)CC4)cc3Cl)nc12` [Example 57, 6-Chloro-2-{2-chloro-4-[3-(1-methyl-piperidin-4-yl)-propoxy]-phenyl}-4-methyl-1H-benzoimidazole], 17 nM; as for `CN1CCC(CCCOc2ccc(-c3nc4cc(C(C)(C)C)ccc4[nH]3)cc2Cl)CC1` [Example 58, 5-tert-Butyl-2-{3-chloro-4-[3-(1-methyl-piperidin-4-yl)-propoxy]-phenyl}-1H-benzoimidazole], 101 nM.
For the compound `Cc1ccc2[nH]c(-c3ccc(OCCCC4CCN(C)CC4)cc3Cl)nc2c1C` [Example 59, 2-{2-Chloro-4-[3-(1-methyl-piperidin-4-yl)-propoxy]-phenyl}-4,5-dimethyl-1H-benzoimidazole], the Ki is 86 nM.
On the same count and under the same terms, the result for `Cc1cc2[nH]c(-c3ccc(OCCCC4CCN(C)CC4)cc3)nc2cc1Cl` [Example 60, 5-Chloro-6-methyl-2-{4-[3-(1-methyl-piperidin-4-yl)-propoxy]-phenyl}-1H-benzoimidazole] reads 39 nM; that for `CN1CCC(CCCOc2ccc(-c3nc4cc(Cl)ccc4[nH]3)cc2)CC1` [Example 61, 5-Chloro-2-{4-[3-(1-methyl-piperidin-4-yl)-propoxy]-phenyl}-1H-benzoimidazole], 49 nM; that for `CN1CCC(CCCOc2ccc(-c3nc4cc(Cl)c(F)cc4[nH]3)cc2)CC1` [Example 62, 5-Chloro-6-fluoro-2-{4-[3-(1-methyl-piperidin-4-yl)-propoxy]-phenyl}-1H-benzoimidazole], 51 nM.
Same read-out and setting: the result for `CN1CCC(CCCOc2ccc(-c3nc4cc(C(C)(C)C)ccc4[nH]3)cc2)CC1` [Example 63, 5-tert-Butyl-2-{4-[3-(1-methyl-piperidin-4-yl)-propoxy]-phenyl}-1H-benzoimidazole] reads 57 nM; that for `Cc1ccc2[nH]c(-c3ccc(OCCCC4CCN(C)CC4)cc3)nc2c1` [Example 64, 5-Methyl-2-{4-[3-(1-methyl-piperidin-4-yl)-propoxy]-phenyl}-1H-benzoimidazole], 121 nM; that for `Cc1cc(Cl)cc2[nH]c(-c3ccc(OCCCC4CCN(C)CC4)cc3F)nc12` [Example 66, 6-Chloro-2-{2-fluoro-4-[3-(1-methyl-piperidin-4-yl)-propoxy]-phenyl}-4-methyl-1H-benzoimidazole], 32 nM.
Consider `Cc1cc(OCCCC2CCN(C)CC2)ccc1-c1nc2cc(F)ccc2[nH]1` [Example 67, 5-Fluoro-2-{2-methyl-4-[3-(1-methyl-piperidin-4-yl)-propoxy]-phenyl}-1H-benzoimidazole], for which the Ki came to 1 nM.
Consider `Cc1cc(OCCCC2CCN(C)CC2)ccc1-c1nc2c(Cl)cccc2[nH]1` [Example 68, 4-Chloro-2-{2-methyl-4-[3-(1-methyl-piperidin-4-yl)-propoxy]-phenyl}-1H-benzoimidazole], for which the Ki was determined as 5 nM.
Regarding `Cc1cc(OCCCC2CCN(C)CC2)ccc1-c1nc2c(C)cc(Cl)cc2[nH]1` [Example 69, 6-Chloro-4-methyl-2-{2-methyl-4-[3-(1-methyl-piperidin-4-yl)-propoxy]-phenyl}-1H-benzoimidazole], the Ki is 6 nM.
The same measure, in the same setting: the result for `CN1CCC(CCCOc2ccc(-c3nc4cc(Cl)c(F)cc4[nH]3)c(Cl)c2)CC1` [Example 70, 5-Chloro-2-{2-chloro-4-[3-(1-methyl-piperidin-4-yl)-propoxy]-phenyl}-6-fluoro-1H-benzoimidazole] reads 20 nM.

The values are drawn from patent publication US7723527B2 (Janssen Pharmaceutica NV, priority 2003, dated 2010).
